Measurements published in ChEMBL document CHEMBL2062445, “Synthesis and nicotinic receptor activity of chemical space analogues of N-(3R)-1-azabicyclo[2.2.2]oct-3-yl-4-chlorobenzamide (PNU-282,987) and 1,4-diazabicyclo[3.2.2]nonane-4-carboxylic acid 4-bromophenyl ester (SSR180711)” (J Med Chem, 2012).
Calls of active or inactive are those of the source. The calls are words filed in the database; no cut-off is given here.

Assays:
[1] = target: T1, Neuronal acetylcholine receptor subunit alpha-7 (Homo sapiens, UniProt P36544); test: Antagonist activity at human alpha7 nAChR expressed in Xenopus oocyte assessed as inhibition of ACh-induced current at 10 uM after 30 secs by electrophysiological assay; assay type: functional
[2] = target: T1, Neuronal acetylcholine receptor subunit alpha-7; test: Agonist activity at human alpha7 nAChR expressed in Xenopus oocyte assessed as stimulation of ACh-induced current at 10 uM after 30 secs by electrophysiological assay; assay type: functional
[3] = target: T1, Neuronal acetylcholine receptor subunit alpha-7; test: Partial agonist activity at human alpha7 nAChR expressed in Xenopus oocyte assessed as stimulation of ACh-induced current after 30 secs by electrophysiological assay; assay type: functional
[4] = target: T1, Neuronal acetylcholine receptor subunit alpha-7; test: Antagonist activity at human alpha7 nAChR expressed in Xenopus oocyte assessed as inhibition of ACh-induced current after 30 secs by electrophysiological assay; assay type: functional
[5] = target: T2, Neuronal acetylcholine receptor; alpha3/beta2 (Homo sapiens) (UniProt P17787+P32297); test: Positive allosteric modulation at human recombinant alpha3beta 2 nAChR expressed in Xenopus oocyte assessed as stimulation of ACh-induced current at 10 uM after 30 secs by electrophysiological assay
[6] = target: T2, Neuronal acetylcholine receptor; alpha3/beta2 (Homo sapiens); test: Negative allosteric modulation at human recombinant alpha3beta 2 nAChR expressed in Xenopus oocyte assessed as inhibition of ACh-induced current at 100 uM after 30 secs by electrophysiological assay
[7] = target: T2, Neuronal acetylcholine receptor; alpha3/beta2 (Homo sapiens); test: Positive allosteric modulation at human recombinant alpha3beta 2 nAChR expressed in Xenopus oocyte assessed as inhibition of ACh-induced current at 100 uM after 30 secs by electrophysiological assay

T1 sequence (P36544 whole entry): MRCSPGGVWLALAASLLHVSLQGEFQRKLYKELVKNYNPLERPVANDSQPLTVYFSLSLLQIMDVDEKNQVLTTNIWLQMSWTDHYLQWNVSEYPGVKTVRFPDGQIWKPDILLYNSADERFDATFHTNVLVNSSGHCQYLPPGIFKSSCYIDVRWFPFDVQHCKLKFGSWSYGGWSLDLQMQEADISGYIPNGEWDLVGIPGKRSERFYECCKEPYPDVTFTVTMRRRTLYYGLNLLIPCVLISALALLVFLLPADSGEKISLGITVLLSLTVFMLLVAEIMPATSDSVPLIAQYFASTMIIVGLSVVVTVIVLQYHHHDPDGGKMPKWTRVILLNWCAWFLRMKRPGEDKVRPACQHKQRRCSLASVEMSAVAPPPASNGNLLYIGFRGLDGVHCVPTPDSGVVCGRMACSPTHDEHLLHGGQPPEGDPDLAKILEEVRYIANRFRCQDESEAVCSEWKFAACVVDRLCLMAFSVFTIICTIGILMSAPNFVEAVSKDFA

CN1CC2CCC1C(CNC(=O)c1ccccc1)C2 (racemic; form 2)
inhibition [1]: 54%
Activity [2]: inactive

CCN1CCC[C@@H]1CNC(=O)c1ccc(Cl)cc1
inhibition [1]: 42%
Activity [2]: inactive

C[C@H]1CN2CCCC[C@@H]2CN1C(=O)c1ccc2ncsc2c1 (racemic)
inhibition [1]: 61%

O=C(NCC12CCCN1CCC2)c1ccc(Br)cc1
inhibition [1]: 9%

CC1CCCC1N1CC[C@H](NC(=O)c2ccc(Cl)cc2)C1 (stereo partly drawn)
inhibition [1]: 33%

O=C(Oc1ccc(Br)cc1)N1CCN2CCC1CC2
Activity [3]: Active

O=C(C1COc2ccccc2O1)N1CCCN2CCC[C@H]2C1 (stereo partly drawn)
inhibition [1]: 54%

CCC#CCN1CCC[C@@H]1CNC(=O)c1ccc(Cl)cc1
inhibition [1]: 21%

CN1CC2CCC1C(CNC(=O)c1ccc(Cl)cc1)C2 (racemic; form 1)
inhibition [1]: 60%

CN1CC2CCC1C(CNC(=O)c1ccccc1)C2 (racemic; form 1)
inhibition [1]: 68%

CN(C)CCNC(=O)c1ccc(Cl)cc1
inhibition [1]: 68%

O=C(c1ccc(F)cc1)N1CCCN2CCC[C@@H]2C1
inhibition [1]: 58%
Activity [2]: inactive

O=C(NCC12CCCN1CCC2)C1COc2ccccc2O1 (stereo not drawn)
inhibition [1]: 29%

CCC#CCN1CCC[C@@H]1CNC(=O)C1COc2ccccc2O1 (stereo partly drawn)
inhibition [1]: 74%

O=C(NCC1=CC2CCN1CC2)c1ccc(Cl)cc1
inhibition [1]: 50%
Activity [2]: inactive

CC(C)N1CCN(C(=O)c2ccc3c(c2)OCCO3)CC1
inhibition [1]: 81%

CN1CC2CCC1C(CNC(=O)c1ccc3c(c1)OCCO3)C2 (racemic; form 1)
inhibition [1]: 81%

O=C(N[C@@H]1CCCC[C@H]1N1CCCCC1)Oc1ccc(Br)cc1 (racemic)
inhibition [1]: 34%
IC50 [4]: 10 µM

O=C(c1ccccc1)N1CCCN2CCC[C@@H]2C1
inhibition [1]: 55%
Activity [2]: inactive

CC(C)N1CCCCN(C(=O)C2COc3ccccc3O2)CC1 (stereo not drawn)
inhibition [1]: 37%

CCN1CCC[C@@H]1CNC(=O)Oc1ccc(Br)cc1
inhibition [1]: 53%
Activity [2]: inactive

Cc1ccc(C(=O)NCC23CCCN2CCC3)cc1
inhibition [1]: 25%

CCN1CC[C@H](NC(=O)c2ccc3ncsc3c2)C1
inhibition [1]: 139%
Activity [2]: inactive

CN(C)CCNC(=O)C1COc2ccccc2O1 (stereo not drawn)
inhibition [1]: 52%

CC(C)N1CCCCN(C(=O)c2ccc3ncsc3c2)CC1
inhibition [1]: 40%

O=C(NCC1=CC2CCN1CC2)c1ccc2c(c1)OCCO2
inhibition [1]: 50%
Activity [2]: inactive

CN1CCC2CC1CN(C(=O)Oc1ccc(Br)cc1)C2 (racemic)
Activity [5]: Active
Activity [6]: Active

CC(C)N1CCN(C(=O)C2COc3ccccc3O2)CC1 (stereo not drawn)
inhibition [1]: 90%

O=C(c1ccc2c(c1)OCCO2)N1CCCN2CCC[C@@H]2C1
inhibition [1]: 40%
Activity [2]: inactive

O=C(NCC1CC2CCN1CC2)Oc1ccc(Br)cc1 (racemic)
inhibition [1]: 80%

CC(C)N1CCN(C(=O)Oc2ccc(Br)cc2)CC1
inhibition [1]: 82%

O=C(NCC12CCCN1CCC2)c1ccccc1
inhibition [1]: 26%
Activity [5]: Active
Activity [6]: Active

O=C(c1ccc2c(c1)OCCO2)N1CCCN2CCC[C@H]2C1
inhibition [1]: 56%

CCC#CCN1CCC[C@H]1COC(=O)c1ccc2ncsc2c1
inhibition [1]: 60%
Activity [2]: inactive

O=C(N[C@H]1CCN(C2CCCCC2)C1)c1ccc2ncsc2c1
inhibition [1]: 56%
Activity [2]: inactive

O=C(c1ccc(Br)cc1)N1CCCN2CCC[C@@H]2C1
inhibition [1]: 40%
Activity [2]: inactive

CN(C)CCNC(=O)c1ccc2c(c1)OCCO2
inhibition [1]: 87%

O=C(N[C@@H]1CCN(Cc2ccccc2)C1)c1ccc2ncsc2c1
inhibition [1]: 59%

CN1CC2CCC1C(CNC(=O)c1ccc(Br)cc1)C2 (racemic; form 2)
inhibition [1]: 66%
Activity [2]: inactive

CN1CC2CCC1C(CNC(=O)c1ccc(Br)cc1)C2 (racemic; form 1)
inhibition [1]: 71%

CC(C)N1CCC[C@@H]1CNC(=O)Oc1ccc(Br)cc1
inhibition [1]: 27%
Activity [2]: inactive

O=C(Oc1ccc(Br)cc1)N1CCCN2CCC[C@H]2C1
inhibition [1]: 62%

CCC#CCN1CCC[C@@H]1CNC(=O)c1ccc2c(c1)OCCO2
inhibition [1]: 96%

CCCC#CCN1CC[C@H](NC(=O)c2ccc3ncsc3c2)C1
inhibition [1]: 81%
Activity [2]: inactive

O=C(NCC12CCCN1CCC2)c1ccccc1Cl
inhibition [1]: 35%

O=C(N[C@H]1CCN(Cc2ccccc2)C1)c1ccc2ncsc2c1
inhibition [1]: 94%
Activity [2]: inactive

O=C(NCC12CCCN1CCC2)c1cccc(Cl)c1
inhibition [1]: 32%

CCN1CCC[C@@H]1CNC(=O)c1ccc2ncsc2c1
inhibition [1]: 53%
Activity [2]: inactive

CC(C)N1CCN(C(=O)c2ccc3ncsc3c2)CC1
inhibition [1]: 85%

C[C@H]1CN2CCCC[C@@H]2CN1C(=O)c1ccc2c(c1)OCCO2
inhibition [1]: 75%

CN(C)CCNC(=O)c1ccc2ncsc2c1
inhibition [1]: 94%

CN1CC2CCC1C(CNC(=O)c1ccc3c(c1)OCCO3)C2 (racemic; form 2)
inhibition [1]: 77%
Activity [2]: inactive

O=C(NC[C@H]1CCCN1C1CCCCC1)c1ccc2ncsc2c1
inhibition [1]: 71%
Activity [2]: inactive

CCCN1CCC[C@@H]1CNC(=O)c1ccc(F)cc1
inhibition [1]: 22%
Activity [2]: inactive

O=C(NCC1=CC2CCN1CC2)c1ccc(F)cc1
inhibition [1]: 36%
Activity [2]: inactive

O=C(NCC1CC2CCN1CC2)c1ccc2c(c1)OCCO2 (racemic)
inhibition [1]: 79%

CC(C)N1CCCN(C(=O)c2ccc3c(c2)OCCO3)CC1
Activity [2]: inactive

C[C@H]1CN2CCCC[C@@H]2CN1C(=O)c1ccc(Cl)cc1
inhibition [1]: 65%

O=C(NCC1=CC2CCN1CC2)c1ccc(Br)cc1
inhibition [1]: 30%
Activity [2]: inactive

CN1CC2CCC1C(CNC(=O)c1ccc(F)cc1)C2 (racemic; form 1)
inhibition [1]: 52%

O=C(NCC1=CC2CCN1CC2)c1ccccc1
inhibition [1]: 35%
Activity [2]: inactive

CN1CC2CCC1C(CNC(=O)c1ccc(F)cc1)C2 (racemic; form 2)
inhibition [1]: 55%
Activity [2]: inactive

O=C(NCC1=CC2CCN1CC2)Oc1ccc(Br)cc1
inhibition [1]: 100%
Activity [2]: inactive

O=C(NCC1CC2CCN1CC2)c1ccccc1 (racemic)
inhibition [1]: 53%

O=C(Oc1ccc(Br)cc1)N1CCCN2CCC[C@@H]2C1
inhibition [1]: 36%
Activity [2]: inactive

CCC#CCN1CCC[C@@H]1CNC(=O)Oc1ccc(Br)cc1
inhibition [1]: 72%

O=C(NCC12CCCN1CCC2)c1ccc(Cl)cc1
inhibition [1]: 32%
Activity [5]: Active
Activity [6]: Active

O=C(NCC1CC2CCN1CC2)c1ccc(F)cc1 (racemic)
inhibition [1]: 84%
Activity [5]: Active
Activity [7]: Active

CC1CCCC1N1CC[C@H](NC(=O)c2ccc3ncsc3c2)C1 (stereo partly drawn)
inhibition [1]: 20%
IC50 [4]: 5 µM

O=C(NCC12CCCN1CCC2)c1ccc2ncsc2c1
inhibition [1]: 34%

CN1CC2CCC1C(CNC(=O)c1ccc(Cl)cc1)C2 (racemic; form 2)
inhibition [1]: 61%
Activity [2]: inactive

O=C(c1ccc(Cl)cc1)N1CCCN2CCC[C@H]2C1
inhibition [1]: 57%

CC(C)N1C[C@H]2C[C@@H]1CN2C(=O)c1ccc(Cl)cc1
inhibition [1]: 69%
Activity [2]: inactive

O=C(NCC12CCCN1CCC2)c1ccc2c(c1)OCCO2
inhibition [1]: 33%

CC(C)N1CCCCN(C(=O)c2ccc3c(c2)OCCO3)CC1
inhibition [1]: 25%
IC50 [4]: 6.9 µM

CC1CCCC1N1CCC(NC(=O)c2ccc3ncsc3c2)CC1 (stereo not drawn)
inhibition [1]: 65%
Activity [2]: inactive

O=C(c1ccc2ncsc2c1)N1CCCN2CCC[C@H]2C1
inhibition [1]: 53%

CC(C)N1CCCCN(C(=O)c2ccc(Cl)cc2)CC1
inhibition [1]: 35%

CCC#CCN1CCC[C@@H]1CNC(=O)c1ccc2ncsc2c1
inhibition [1]: 13%
IC50 [4]: 40 µM

CC(C)N1CCN(C(=O)c2ccc(Cl)cc2)CC1
inhibition [1]: 84%

CCC#CCN1CCC[C@H]1CNC(=O)c1ccc2ncsc2c1
inhibition [1]: 88%
Activity [2]: inactive
IC50 [4]: 45 µM
